Test results taken from publication PMC5908784, “Extracellular loops 2 and 3 of the calcitonin receptor selectively modify agonist binding and efficacy” (Biochemical Pharmacology, 2018).
Where a chain is given by its changes, count along the chain named. Where a SMILES comes first, the peptide text is derived from it. Bridges are numbered along the chain shown (N, C = ends).

Columns and labels:
Assay in all cases: cAMP accumulation
Format in all cases: cell-based
Details in all cases: mean ± S.E.M.; for Emax: cAMP maximal response, SEM; for EC50: cAMP, CV1-FlpIn cells, 30 min, IBMX
hCTR Y299A = biological target: T1, hCTR Y299A (Homo sapiens, UniProt P30988, Y299A)
T1 construct: c-Myc (N); expressed in transfected cells
T1 sequence (P30988 25-474 Y299A): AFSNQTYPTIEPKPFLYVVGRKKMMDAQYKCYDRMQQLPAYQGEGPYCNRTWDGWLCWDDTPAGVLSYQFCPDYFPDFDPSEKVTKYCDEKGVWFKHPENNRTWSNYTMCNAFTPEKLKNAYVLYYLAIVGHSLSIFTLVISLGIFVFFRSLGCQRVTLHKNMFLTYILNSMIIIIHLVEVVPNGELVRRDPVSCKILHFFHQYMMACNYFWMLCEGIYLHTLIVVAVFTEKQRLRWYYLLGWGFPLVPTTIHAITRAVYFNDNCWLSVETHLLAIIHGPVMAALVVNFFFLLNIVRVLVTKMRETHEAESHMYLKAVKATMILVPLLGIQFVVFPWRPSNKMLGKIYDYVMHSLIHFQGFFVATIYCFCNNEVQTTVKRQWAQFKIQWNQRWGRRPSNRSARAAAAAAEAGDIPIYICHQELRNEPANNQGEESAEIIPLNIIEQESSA
Outline: (§1)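 For each mutant, cAMP generated during a 30 min ligand exposure with IBMX is reported as a fraction of the 100 μM forskolin maximum. Cells were ethanol-extracted and dried at room temperature prior to measurement.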

hCTR S292A = biological target: T2, hCTR S292A (Homo sapiens, UniProt P30988, S292A)
T2 construct: expressed in transfected cells
T2 sequence (P30988 25-474 S292A): T1 sequence (P30988 25-474 Y299A) with S268A, A275Y
Outline: as §1

hCTR WT = biological target: T3, hCTR WT (Homo sapiens, UniProt P30988)
T3 construct: expressed in transfected cells
T3 sequence (P30988 25-474): T1 sequence (P30988 25-474 Y299A) with A275Y
Outline: as §1

hCTR P360A = biological target: T4, hCTR P360A (Homo sapiens, UniProt P30988, P360A)
T4 construct: expressed in transfected cells
T4 sequence (P30988 25-474 P360A): T1 sequence (P30988 25-474 Y299A) with A275Y, P336A
Outline: as §1

hCTR F285A = biological target: T5, hCTR F285A (Homo sapiens, UniProt P30988, F285A)
T5 construct: expressed in transfected cells
T5 sequence (P30988 25-474 F285A): T1 sequence (P30988 25-474 Y299A) with F261A, A275Y
Outline: as §1

| EC50 (hCTR Y299A) [nM] | EC50 (hCTR S292A) [nM] | EC50 (hCTR WT) [nM] | EC50 (hCTR P360A) [nM] | EC50 (hCTR F285A) [nM] | Compound | Emax (hCTR Y299A) [%] | Emax (hCTR S292A) [%] | Emax (hCTR WT) [%] | Emax (hCTR P360A) [%] | Emax (hCTR F285A) [%] |
| --- | --- | --- | --- | --- | --- | --- | --- | --- | --- | --- |
| – | – | – | – | – | CC[C@H](C)[C@H](NC(=O)[C@H](C)NC(=O)[C@@H](NC(=O)[C@H](CCC(N)=O)NC(=O)[C@@H]1CCCN1C(=O)[C@H](Cc1ccccc1)NC(=O)[C@@H](NC(=O)[C@H](Cc1c[nH]cn1)NC(=O)[C@H](Cc1ccccc1)NC(=O)[C@H](CCCCN)NC(=O)[C@H](CC(N)=O)NC(=O)[C@H](Cc1ccccc1)NC(=O)[C@H](CC(=O)O)NC(=O)[C@H](CCC(N)=O)NC(=O)[C@@H](NC(=O)[C@H](Cc1ccc(O)cc1)NC(=O)[C@@H](NC(=O)CNC(=O)[C@H](CC(C)C)NC(=O)[C@H](CCSC)NC(=O)[C@@H]1CSSC[C@H](N)C(=O)NCC(=O)N[C@@H](CC(N)=O)C(=O)N[C@@H](CC(C)C)C(=O)N[C@@H](CO)C(=O)N[C@@H]([C@@H](C)O)C(=O)N1)[C@@H](C)O)[C@@H](C)O)[C@@H](C)O)[C@@H](C)O)C(=O)NCC(=O)N[C@H](C(=O)NCC(=O)N[C@@H](C)C(=O)N1CCC[C@H]1C(N)=O)C(C)C [hCT] | 133 ± 9 | 135 ± 13 | 100 ± 2 | 152 ± 8 | 105 ± 11 |
| 33.1 | 22.4 | 11 | 17.4 | 15.8 | CC(C)C[C@H](NC(=O)CNC(=O)[C@H](C)NC(=O)[C@H](CC(C)C)NC(=O)[C@H](CCCNC(=N)N)NC(=O)[C@H](Cc1cnc[nH]1)NC(=O)[C@@H](NC(=O)[C@@H](NC(=O)[C@@H]1CSSC[C@H](NC(=O)[C@H](C)N)C(=O)N[C@@H](CC(=O)O)C(=O)N[C@@H]([C@@H](C)O)C(=O)N[C@@H](C)C(=O)N[C@@H]([C@@H](C)O)C(=O)N1)C(C)C)[C@@H](C)O)C(=O)N[C@@H](CC(C)C)C(=O)N[C@@H](CO)C(=O)N[C@@H](CCCNC(=N)N)C(=O)N[C@@H](CO)C(=O)NCC(=O)NCC(=O)N[C@H](C(=O)N[C@H](C(=O)N[C@@H](CCCCN)C(=O)N[C@@H](CC(N)=O)C(=O)N[C@@H](CC(N)=O)C(=O)N[C@@H](Cc1ccccc1)C(=O)N[C@H](C(=O)N1CCC[C@H]1C(=O)N[C@H](C(=O)N[C@@H](CC(N)=O)C(=O)N[C@H](C(=O)NCC(=O)N[C@@H](CO)C(=O)N[C@@H](CCCCN)C(=O)N[C@@H](C)C(=O)N[C@@H](Cc1ccccc1)C(N)=O)C(C)C)[C@@H](C)O)C(C)C)C(C)C)C(C)C [hαCGRP] | 62 ± 16 | 106 ± 14 | 100 ± 7 | 48 ± 5 | 122 ± 18 |
| 0.135 | 0.0316 | 0.0398 | 0.132 | 0.0501 | CSCC[C@H](NC(=O)CNC(=O)[C@H](CO)NC(=O)[C@H](Cc1ccccc1)NC(=O)[C@H](CCCNC(=N)N)NC(=O)[C@H](Cc1c[nH]cn1)NC(=O)[C@H](Cc1ccccc1)NC(=O)[C@H](CC(N)=O)NC(=O)[C@H](CC(N)=O)NC(=O)[C@H](CC(C)C)NC(=O)[C@H](CC(N)=O)NC(=O)[C@H](CCCNC(=N)N)NC(=O)[C@H](Cc1c[nH]c2ccccc12)NC(=O)[C@H](Cc1ccc(O)cc1)NC(=O)[C@H](C)NC(=O)[C@H](CO)NC(=O)[C@H](CC(C)C)NC(=O)[C@@H](NC(=O)[C@@H]1CSSC[C@H](N)C(=O)N[C@@H](CO)C(=O)N[C@@H](CC(N)=O)C(=O)N[C@@H](CC(C)C)C(=O)N[C@@H](CO)C(=O)N[C@@H]([C@@H](C)O)C(=O)N1)C(C)C)C(=O)NCC(=O)N[C@@H](Cc1ccccc1)C(=O)NCC(=O)N1CCC[C@H]1C(=O)N[C@@H](CCC(=O)O)C(=O)N[C@H](C(=O)N1CCC[C@H]1C(N)=O)[C@@H](C)O [pCT] (H-CSNLSTCVLSAYWRNLNNFHRFSGMGFGPETP-NH2; disulfide 1-7) | 117 ± 9 | 131 ± 9 | 100 ± 2 | 146 ± 13 | 81 ± 10 |
| – | – | – | – | – | CC(C)C[C@H](NC(=O)[C@H](CC(N)=O)NC(=O)[C@H](CC(N)=O)NC(=O)[C@H](CO)NC(=O)[C@H](CO)NC(=O)[C@H](CCCNC(=N)N)NC(=O)[C@@H](NC(=O)[C@H](CC(C)C)NC(=O)[C@H](Cc1ccccc1)NC(=O)[C@H](CC(N)=O)NC(=O)[C@H](C)NC(=O)[C@H](CC(C)C)NC(=O)[C@H](CCCNC(=N)N)NC(=O)[C@H](CCC(N)=O)NC(=O)[C@@H](NC(=O)[C@H](C)NC(=O)[C@@H]1CSSC[C@H](NC(=O)[C@@H](N)CCCCN)C(=O)N[C@@H](CC(N)=O)C(=O)N[C@@H]([C@@H](C)O)C(=O)N[C@@H](C)C(=O)N[C@@H]([C@@H](C)O)C(=O)N1)[C@@H](C)O)C(C)C)C(=O)NCC(=O)N1CCC[C@H]1C(=O)N[C@H](C(=O)N[C@@H](CC(C)C)C(=O)N1CCC[C@H]1C(=O)N1CCC[C@H]1C(=O)N[C@H](C(=O)N[C@@H](CC(N)=O)C(=O)N[C@H](C(=O)NCC(=O)N[C@@H](CO)C(=O)N[C@@H](CC(N)=O)C(=O)N[C@H](C(=O)N[C@@H](Cc1ccc(O)cc1)C(N)=O)[C@@H](C)O)C(C)C)[C@@H](C)O)C(C)C [rAmy] | 102 ± 1 | 95 ± 10 | 100 ± 4 | 115 ± 13 | 92 ± 9 |
| – | – | – | – | – | CC(C)C[C@H](NC(=O)[C@H](CCCCN)NC(=O)CNC(=O)[C@H](CC(C)C)NC(=O)[C@@H](NC(=O)[C@@H]1CSSC[C@H](N)C(=O)N[C@@H](CO)C(=O)N[C@@H](CC(N)=O)C(=O)N[C@@H](CC(C)C)C(=O)N[C@@H](CO)C(=O)N[C@@H]([C@@H](C)O)C(=O)N1)C(C)C)C(=O)N[C@@H](CO)C(=O)N[C@@H](CCC(N)=O)C(=O)N[C@@H](CCC(=O)O)C(=O)N[C@@H](CC(C)C)C(=O)N[C@@H](Cc1c[nH]cn1)C(=O)N[C@@H](CCCCN)C(=O)N[C@@H](CC(C)C)C(=O)N[C@@H](CCC(N)=O)C(=O)N[C@H](C(=O)N[C@@H](Cc1ccc(O)cc1)C(=O)N1CCC[C@H]1C(=O)N[C@@H](CCCNC(=N)N)C(=O)N[C@H](C(=O)N[C@@H](CC(N)=O)C(=O)N[C@H](C(=O)NCC(=O)N[C@@H](CO)C(=O)NCC(=O)N[C@H](C(=O)N1CCC[C@H]1C(N)=O)[C@@H](C)O)[C@@H](C)O)[C@@H](C)O)[C@@H](C)O [sCT] | 110 ± 7 | 119 ± 12 | 100 ± 1 | 100 ± 5 | 105 ± 8 |
